Results on 6 compounds are retold here after patent publication US20130266528A1, “SKIN LIGHTENING COMPOSITION” (priority 2010, published 2013).

Data set [1] concerns HaCaT keratinocyte cells. As to the kind of experiment: Keratinocyte differentiation (acridine orange staining). In kind it is cell-based. The settings on record: 24 hrs, average of minimum three replicates. On the procedure:
Several dicarboxylic acids were tested in an in-vitro assay viz. keratinocyte differentiation which is a well known pathway leading to skin lightening. The assay protocol is given below: 5×10^4 HaCaT keratinocyte cells/well were grown in 24 well plates for 24 hours. Cells were cultured with actives for 24 hrs. Cells were then washed with Phosphated buffer solution (PBS) and stained with 5 μg/ml acridine orange. Cells were immediately viewed using an epi-fluorescent microscope (Olympus BX 50), at 20× magnification, using appropriate excitation and barrier filters, to simultaneously view red and green fluorescence (excitation: 460 nm and emission>515 nm). The entire plate was scanned and the percentage of differentiated keratinocytes (cells with red fluorescence evenly distributed within the cytoplasm) was estimated. Data is represented as % control.

Data set [2] relates to HaCaT keratinocyte cells. The data set is described as follows: Highest concentration above which the active exhibited cytotoxicity. The note with it: keratinocyte differentiation experiment of table 2. In kind it is cell-based.
For data set [3], the system named is B16 melanocytes. The settings on record: 1 mM active, 24 hrs, average of minimum three replicates. On the procedure: B16 melanocytes were cultured in 60 mm^2 petriplates for 2-3 days or until they reached ˜70% confluency and then actives were added and incubated for 24 hrs. Cells were harvested and protein content was estimated using Bradford method. The cells were then solubilized in 0.1N NaOH and melanin was estimated. Data are then calculated as mg melanin/mg protein and represented as % control. Decreased numbers indicate inhibition of melanin synthesis by the actives.

SMILES strings stand for the structures. Where a name gives a salt, the structure may show the parent alone.

For the compound `O=C(O)CCCCCCCC(=O)O` [azeleic acid], the “% Keratinocyte differentiation, average” value in data set [1] (5.5 mM active) is listed as 175 % control. Moreover, the “Conc. of active = highest possible concentration above which the active exhibited cytotoxicity” value in data set [2] worked out at 5500 µM.

For the compound `O=C(O)/C=C/C(=O)O` [disodium fumarate], the “% Keratinocyte differentiation, average” value in data set [1] (10 mM active) is on record as 183 % control. Moreover, the “Conc. of active = highest possible concentration above which the active exhibited cytotoxicity” value in data set [2] is 10000 µM.

In the case of `O=C(O)CCCCCCCCC(=O)O` [sebacic acid], the “% Keratinocyte differentiation, average” value in data set [1] (5 mM active) worked out at 130 % control. In addition, the “Conc. of active = highest possible concentration above which the active exhibited cytotoxicity” value in data set [2] stood at 5000 µM.

Take `CCCC(=O)[O-].[Na+]` [sodium butyrate]: the “% Keratinocyte differentiation, average” value in data set [1] (1 mM active) is given as 174 % control. Further, the “Conc. of active = highest possible concentration above which the active exhibited cytotoxicity” value in data set [2] was 1000 µM. In addition, in data set [3], the “Melanin (mg melanin/mg protein), average” value came to 92 % control.

As to `O=C([O-])CCC(=O)[O-].[Na+].[Na+]` [sodium succinate], the “% Keratinocyte differentiation, average” value in data set [1] (6 mM active) is listed as 155 % control. Besides, in data set [2], the “Conc. of active = highest possible concentration above which the active exhibited cytotoxicity” value turned out to be 6000 µM.

Consider `O=C([O-])C(O)C(O)C(=O)[O-].[Na+].[Na+]` (stereo not shown) [sodium tartarate], for which the “% Keratinocyte differentiation, average” value in data set [1] (10 mM active) was found to be 165 % control. Also, the “Conc. of active = highest possible concentration above which the active exhibited cytotoxicity” value in data set [2] was 10000 µM.
